Calls of active or inactive are those of the source. The rule behind the calls is not given here.
Tests used:
[1] = biological target: T1, Indoleamine 2,3-dioxygenase 1 (Homo sapiens, UniProt P14902); experiment: Inhibition of human recombinant indoleamine-2,3-dioxygenase expressed in Escherichia coli BL21 using L-tryptophan as substrate after 30 mins by microplate reader analysis
Target sequence in this assay (P14902 whole entry): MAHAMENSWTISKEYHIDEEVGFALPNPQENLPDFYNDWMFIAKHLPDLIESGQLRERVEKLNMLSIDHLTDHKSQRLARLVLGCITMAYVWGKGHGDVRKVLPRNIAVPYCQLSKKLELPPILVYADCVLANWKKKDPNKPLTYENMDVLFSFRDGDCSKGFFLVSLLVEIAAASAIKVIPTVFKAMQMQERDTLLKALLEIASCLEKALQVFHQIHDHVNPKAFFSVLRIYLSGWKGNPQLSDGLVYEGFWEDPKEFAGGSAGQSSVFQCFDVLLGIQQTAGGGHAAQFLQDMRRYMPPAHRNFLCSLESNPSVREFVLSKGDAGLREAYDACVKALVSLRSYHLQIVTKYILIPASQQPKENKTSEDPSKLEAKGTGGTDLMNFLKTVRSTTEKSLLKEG

T-cell [2] = experiment: Induction of BALB/c mouse LLC-stimulated T cell proliferation after 4 days by WST-1 method; assay type: functional, cell-based
[3] = biological target: T1, Indoleamine 2,3-dioxygenase 1; experiment: Ratio of IC50 for human recombinant indoleamine-2,3-dioxygenase expressed in Escherichia coli BL21 to IC50 for indoleamine-2,3-dioxygenase in human HEK293 cells
Target sequence in this assay (P14902 whole entry, looked up): as the sequence (P14902 whole entry) above

[4] = biological target: T1, Indoleamine 2,3-dioxygenase 1; experiment: Reversal inhibition of human recombinant indoleamine-2,3-dioxygenase expressed in Escherichia coli BL21 using L-tryptophan as substrate by Dixon plot analysis
Target sequence in this assay (P14902 whole entry, looked up): as the sequence (P14902 whole entry) above

[5] = biological target: T1, Indoleamine 2,3-dioxygenase 1; experiment: Uncompetitive inhibition of human recombinant indoleamine-2,3-dioxygenase expressed in Escherichia coli BL21 using L-tryptophan as substrate by Dixon plot analysis
Target sequence in this assay (P14902 whole entry): as above

[6] = biological target: T1, Indoleamine 2,3-dioxygenase 1; experiment: Inhibition of indoleamine-2,3-dioxygenase in human HEK293 cells assessed as N-formylkynurenine level after 5 hrs by spectrophotometric analysis; assay type: cell-based
Target sequence in this assay (P14902 whole entry): as above

T-cell [7] = experiment: Ratio of 1-methyl tryptophan to compound for induction of BALB/c mouse LLC-stimulated T cell proliferation; assay type: functional

COC(=O)c1ccc(-c2cnn[nH]2)cc1
IC50 [1]: Not Active

Brc1ccccc1-c1cnn[nH]1
Activity (T-cell [2]): Dose-dependent effect
Ratio IC50 [3]: 3
inhibition [4]: Active

c1ccc(-c2cnn[nH]2)cc1
Activity (T-cell [2]): Dose-dependent effect
inhibition [4]: Active

Brc1nn[nH]c1-c1ccccc1
IC50 [1]: Not Active

O=[N+]([O-])c1ccc(-c2nn[nH]c2[N+](=O)[O-])cc1
IC50 ([1]; read-out: IC50): 533 µM

Fc1ccc(-c2c[nH]nn2)cc1
IC50 ([1]; read-out: IC50): 580 µM

Cc1ccc(-c2c[nH]nn2)cc1
IC50 [1]: Not Active

Ic1nn[nH]c1-c1ccccc1
IC50 ([1]; read-out: IC50): 1370 µM

Clc1nn[nH]c1-c1ccccc1
IC50 [1]: Not Active

c1cncc(-c2c[nH]nn2)c1
IC50 ([1]; read-out: IC50): 708 µM

COc1ccc(-c2c[nH]nn2)cc1
IC50 ([1]; read-out: IC50): 6000 µM

Cc1ccc(-c2[nH]nnc2Br)cc1
IC50 ([1]; read-out: IC50): 1030 µM

Brc1ccc(-c2nn[nH]n2)cc1
IC50 [1]: Not Active

On1nnc2ccccc21
IC50 [1]: Not Active

Clc1ccccc1-c1c[nH]nn1
Ki [5]: 14.5 µM
IC50 [6]: 19.3 µM
IC50 ([1]; read-out: IC50): 86 µM

CCOC(=O)c1cn(-c2ccc(Cl)cc2)nn1
IC50 ([1]; read-out: IC50): 2000 µM

Brc1ccc(-c2c[nH]nn2)cc1
IC50 ([1]; read-out: IC50): 1260 µM

c1ccc2[nH]nnc2c1 [BENZOTRIAZOLE]
IC50 ([1]; read-out: IC50): 2570 µM

Clc1ccccc1-c1cnn[nH]1
Activity (T-cell [2]): Dose-dependent effect
Ratio IC50 [3]: 3
inhibition [4]: Active
Ratio (T-cell [7]): 2

COc1ccccc1-c1c[nH]nn1
IC50 ([1]; read-out: IC50): 1030 µM

Brc1ccccc1-c1c[nH]nn1
Ki [5]: 18 µM
IC50 [6]: 31.6 µM
IC50 ([1]; read-out: IC50): 148 µM

Clc1ccc(-c2c[nH]nn2)cc1
IC50 ([1]; read-out: IC50): 817 µM

Source: ChEMBL document CHEMBL1909637, “Structure-activity relationship and enzyme kinetic studies on 4-aryl-1H-1,2,3-triazoles as indoleamine 2,3-dioxygenase (IDO) inhibitors” (Eur J Med Chem, 2011)
